Data on seven compounds can be found in US20040215284A1, “Treatment of neuromuscular dysfunction of the lower urinary tract with selective mGlu5 antagonists” (Recordati S.A., priority 2003, published 2004).

SMILES strings stand for the structures. Bounds are passed on as bounds.

The target of one experiment is mGlu5 (Rattus norvegicus, UniProt P31424). The conditions noted are these: rat forebrain; for Ki: read-out: mGlu5 Ki, [3H]MPEP.
Experiment [1] deals with Group II (mGlu2 + mGlu3) receptors. The experiment in a line: Radioligand binding assay at Group II (mGlu2+mGlu3), [3H]LY341495, rat forebrain membranes. The conditions noted are these: for Ki: [3H]LY341495.
Description: Male Sprague Dawley rats (200-300 g, Charles River, Italy) were killed by cervical dislocation and the forebrain (cortex, striatum and hippocampus) and cerebellum were homogenized (2×20 sec) in 50 vols of cold 50 mM Tris buffer pH 7.4, using a Politron homogenizer (Kinematica). […] The final pellets were frozen and stored at −80° C. until use.
iii) Group II (mGlu2+mGlu3): On experimental section pellets from rat forebrain were resuspended in 250 vols of 20 mM HEPES, 2 mM MgCl2, 2 mM CaCl2, pH 7.4. The membranes were incubated in a final volume of 1 ml for 30 min at 0° C. with 1 nM [^3H]LY341495 in the absence or presence of competing drugs.
The filters were then washed with cold buffer and the radioactivity retained on the filters was counted by liquid scintillation spectrometry.
Data were expressed as the mean of pKi(−log Ki)±SE.
For a further experiment, the target named is mGlu2 (Homo sapiens, UniProt Q14416). The conditions noted are these: cited from earlier work.
For experiment [2], the system named is rhythmic bladder-voiding contractions in anaesthetised rats. The experiment in a line: Rhythmic bladder-voiding contractions induced by bladder filling in anaesthetised rats. The experiment is classed as in vivo, rat. Particulars: for BLADDER CONTRACTIONS quiescence time: mean ± SEM; for activity as inhibitors of isovolumic voiding contractions (in words) / ED10min (extrapolated dose inducing 10 min of bladder quiescence): i.v.; for activity as inhibitors of isovolumic voiding contractions (in words): anaesthetised rats; for ED10min (extrapolated dose inducing 10 min of bladder quiescence): linear regression. How it is done: The animals were housed with free access to food and water and maintained on a forced 12-hour alternating light-dark cycle at 22-24° C. for at least one week, except during the experiment. […] The catheter was tied in place with a ligature around the external urethral orifice and was connected to conventional pressure transducers (Statham P23 ID/P23 XL). […] The bladder was then filled via the recording catheter by incremental volumes of warm (37° C.) saline until reflex bladder-voiding contractions occurred (usually 0.8-1.5 ml). For intravenous injection of bioactive compounds, PE 50 polyethylene tubing filled with physiological saline was inserted into the jugular vein.
From the cystometrogram, the number of contractions recorded 15 minutes before (basal values) and after treatment, as well as the mean amplitude of these contractions (mean height of the peaks in mmHg), were evaluated.
Morphine was tested, too, as a reference standard for this model.

In a further experiment the target is mGlu5a (Homo sapiens, UniProt P41594). Particulars: literature, functional models; cited from earlier work.
The target of another experiment is T1, mGlu1 (Rattus norvegicus, UniProt P23385).
T1 construct: pellets from rat cerebellum were resuspended; from tissue; host or cells: rat cerebellum membranes (male Sprague Dawley)
T1 sequence (P23385 19-1199): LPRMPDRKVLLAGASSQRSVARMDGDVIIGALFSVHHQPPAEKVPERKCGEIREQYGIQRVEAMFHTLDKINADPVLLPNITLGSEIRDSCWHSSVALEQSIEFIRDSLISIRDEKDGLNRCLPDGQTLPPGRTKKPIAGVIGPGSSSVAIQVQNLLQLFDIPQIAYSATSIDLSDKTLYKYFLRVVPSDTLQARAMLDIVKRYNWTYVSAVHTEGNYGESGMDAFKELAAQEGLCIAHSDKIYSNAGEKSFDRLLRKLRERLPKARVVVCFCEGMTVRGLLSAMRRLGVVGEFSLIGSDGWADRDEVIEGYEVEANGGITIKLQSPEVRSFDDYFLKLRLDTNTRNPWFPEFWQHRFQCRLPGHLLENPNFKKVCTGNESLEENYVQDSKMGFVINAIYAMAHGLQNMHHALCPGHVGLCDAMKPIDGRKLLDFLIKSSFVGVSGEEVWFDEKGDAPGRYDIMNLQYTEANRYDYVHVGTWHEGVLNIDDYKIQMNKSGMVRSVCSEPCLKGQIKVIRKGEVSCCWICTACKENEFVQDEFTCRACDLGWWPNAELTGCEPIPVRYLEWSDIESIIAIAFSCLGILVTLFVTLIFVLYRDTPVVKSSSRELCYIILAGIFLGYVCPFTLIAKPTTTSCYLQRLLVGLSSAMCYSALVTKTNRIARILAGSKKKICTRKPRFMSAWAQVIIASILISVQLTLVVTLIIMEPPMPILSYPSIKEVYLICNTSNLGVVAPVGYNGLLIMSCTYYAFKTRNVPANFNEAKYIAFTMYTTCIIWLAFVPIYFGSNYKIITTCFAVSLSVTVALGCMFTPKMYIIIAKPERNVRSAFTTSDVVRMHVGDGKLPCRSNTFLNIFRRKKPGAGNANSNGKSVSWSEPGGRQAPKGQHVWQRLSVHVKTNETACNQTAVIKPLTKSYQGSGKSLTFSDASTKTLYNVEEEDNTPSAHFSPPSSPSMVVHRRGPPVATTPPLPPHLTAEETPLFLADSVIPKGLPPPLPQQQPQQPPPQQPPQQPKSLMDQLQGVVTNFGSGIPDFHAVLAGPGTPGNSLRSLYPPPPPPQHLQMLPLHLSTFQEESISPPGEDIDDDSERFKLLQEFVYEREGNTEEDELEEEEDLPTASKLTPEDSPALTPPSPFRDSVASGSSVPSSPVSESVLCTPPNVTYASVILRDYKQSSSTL
Description: Radioligand binding assay at mGlu1, [3H]quisqualic acid, rat cerebellum membranes. Particulars: for Ki: [3H]quisqualic acid.

Another experiment deals with mGlu4a (Homo sapiens, UniProt Q14833). Particulars: literature, functional models; cited from earlier work.
Chain of mGlu4a (Q14833 33-912): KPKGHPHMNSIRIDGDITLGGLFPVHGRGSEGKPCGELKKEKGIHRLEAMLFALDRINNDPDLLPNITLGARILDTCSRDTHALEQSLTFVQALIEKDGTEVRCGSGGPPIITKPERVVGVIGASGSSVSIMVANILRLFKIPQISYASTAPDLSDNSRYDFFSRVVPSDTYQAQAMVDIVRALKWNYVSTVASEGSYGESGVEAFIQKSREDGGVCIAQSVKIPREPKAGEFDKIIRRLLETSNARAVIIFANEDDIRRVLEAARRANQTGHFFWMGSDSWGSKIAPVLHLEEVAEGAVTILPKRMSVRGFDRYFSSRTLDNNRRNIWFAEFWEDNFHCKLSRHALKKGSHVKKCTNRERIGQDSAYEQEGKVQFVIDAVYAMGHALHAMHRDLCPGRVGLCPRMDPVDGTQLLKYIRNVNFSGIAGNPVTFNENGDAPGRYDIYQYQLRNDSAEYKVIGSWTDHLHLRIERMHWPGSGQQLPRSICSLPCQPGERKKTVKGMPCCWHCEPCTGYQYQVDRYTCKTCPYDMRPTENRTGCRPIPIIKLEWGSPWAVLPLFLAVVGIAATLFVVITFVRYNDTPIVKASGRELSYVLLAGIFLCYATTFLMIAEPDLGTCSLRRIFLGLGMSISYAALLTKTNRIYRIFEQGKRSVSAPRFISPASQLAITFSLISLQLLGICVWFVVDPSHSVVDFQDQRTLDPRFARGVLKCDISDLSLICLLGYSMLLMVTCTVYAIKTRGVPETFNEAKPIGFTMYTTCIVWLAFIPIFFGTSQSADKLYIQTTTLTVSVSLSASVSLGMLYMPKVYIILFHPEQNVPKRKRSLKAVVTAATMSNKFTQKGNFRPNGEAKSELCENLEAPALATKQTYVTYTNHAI
A further experiment deals with mGlu1a (Homo sapiens, UniProt Q13255). The conditions noted are these: literature, functional models; cited from earlier work.
Chain of mGlu1a (Q13255 19-1194): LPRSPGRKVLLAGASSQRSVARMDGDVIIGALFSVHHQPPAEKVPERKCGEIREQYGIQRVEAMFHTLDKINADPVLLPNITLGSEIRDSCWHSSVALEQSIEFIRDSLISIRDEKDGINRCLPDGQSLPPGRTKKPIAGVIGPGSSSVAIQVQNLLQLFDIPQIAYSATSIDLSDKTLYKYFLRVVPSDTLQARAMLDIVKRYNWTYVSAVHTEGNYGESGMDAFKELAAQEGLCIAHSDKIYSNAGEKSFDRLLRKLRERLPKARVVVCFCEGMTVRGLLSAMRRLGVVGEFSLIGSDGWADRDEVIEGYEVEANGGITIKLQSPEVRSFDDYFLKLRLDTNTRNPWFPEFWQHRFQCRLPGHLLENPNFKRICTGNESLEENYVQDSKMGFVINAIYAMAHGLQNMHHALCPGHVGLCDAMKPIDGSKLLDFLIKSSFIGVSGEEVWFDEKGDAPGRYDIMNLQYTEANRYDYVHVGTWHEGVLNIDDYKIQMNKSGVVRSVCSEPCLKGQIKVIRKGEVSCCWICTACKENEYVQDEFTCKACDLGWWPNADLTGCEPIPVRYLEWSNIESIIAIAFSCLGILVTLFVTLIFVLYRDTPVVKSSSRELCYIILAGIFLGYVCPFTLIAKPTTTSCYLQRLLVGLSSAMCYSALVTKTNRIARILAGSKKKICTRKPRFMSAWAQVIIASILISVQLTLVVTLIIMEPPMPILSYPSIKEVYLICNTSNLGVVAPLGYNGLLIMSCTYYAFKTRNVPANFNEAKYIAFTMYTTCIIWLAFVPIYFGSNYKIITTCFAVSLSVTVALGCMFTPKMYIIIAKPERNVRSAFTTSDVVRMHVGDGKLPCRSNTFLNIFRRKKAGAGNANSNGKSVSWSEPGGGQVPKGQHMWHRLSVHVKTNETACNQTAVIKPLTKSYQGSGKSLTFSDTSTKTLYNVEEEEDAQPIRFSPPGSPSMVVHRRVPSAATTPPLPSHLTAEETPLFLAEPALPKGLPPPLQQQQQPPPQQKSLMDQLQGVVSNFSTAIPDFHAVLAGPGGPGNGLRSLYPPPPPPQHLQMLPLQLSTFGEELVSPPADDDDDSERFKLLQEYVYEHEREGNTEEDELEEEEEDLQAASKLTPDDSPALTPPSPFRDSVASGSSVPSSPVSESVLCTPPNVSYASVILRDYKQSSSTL
For another experiment, the target named is mGlu6 (Homo sapiens, UniProt O15303). The conditions noted are these: literature, functional models; cited from earlier work.
Experiment [3] deals with conscious rats with bladder infused with dilute acetic acid. Description: Cystometric parameters in conscious rats with bladder infused with dilute acetic acid. The format is in vivo, rat. The conditions noted are these: 10 mg/kg oral, bladder infused with 0.2% acetic acid. How it is done: The method used was that described in Example 4. The basal BVC and MP values were evaluated as the mean of the values observed in the cystometrograms recorded over an initial period of 30-60 minutes. At this point in the test, the infusion was stopped and the test compounds were administered orally via gastric intubation. Infusion into the bladder was resumed, replacing the warm saline solution with dilute acetic acid (0.2%) and the variations in BVC and MP recorded were evaluated as mean values obtained in the cystometrograms 1, 2, 3 and 4 hours after the treatment, relative to the basal values. The compounds were administered in a volume of 2 ml/kg and the groups of control animals received the same amount of vehicle (0.5% Methocel in water) orally.
The statistical analysis of the data was performed as reported in Example 4.

In another experiment the target is mGlu7 (Homo sapiens, UniProt Q14831). Particulars: literature, functional models; cited from earlier work.
Another experiment addresses mGlu8 (Homo sapiens, UniProt O00222). The conditions noted are these: literature, functional models; cited from earlier work.
A further experiment deals with conscious rats. The experiment in a line: Cystometric parameters in conscious rats (bladder infused with saline). The experiment is classed as in vivo, rat. On the procedure:
Male Sprague-Dawley rats [Crl: CD® (SD) IGS BR] of 300-400 g b.w. supplied by Charles River Italia were used. The animals were housed with free access to food and water and maintained on a forced 12-hour-light/12-hour-dark cycle at 22-24° C. of temperature, except during the experiment. To quantify urodynamic parameters in conscious rats, cystometrographic studies were performed according to the procedure previously reported (Guarneri et al., Pharmacol. Res. 24: 75, 1991).
Briefly, the rats were anaesthetized by intraperitoneal administration of 3 ml/kg of Equithensin solution (pentobarbital 30 mg/kg and chloral hydrate 125 mg/kg) and placed in a supine position. An approximately 10 mm long midline incision was made in the shaved and cleaned abdominal wall. The urinary bladder was gently freed from adhering tissues, emptied and then cannulated via an incision in the bladder body, using a polyethylene cannula (0.58 mm internal diameter, 0.96 mm external diameter) which was permanently sutured with silk thread. For intravenous bolus injection, a similar polyethylene tubing filled with physiological saline containing sodium heparin (40 I.U./ml) was inserted into the jugular vein. The cannulae were exteriorized through a subcutaneous tunnel in the retroscapular area, where they were connected to a plastic adapter in order to avoid the risk of removal by the animal. For drug testing, the rats were utilized one day after implantation.
On the day of the experiment, the rats were placed in modified Bollman cages, i.e., restraining cages that were large enough to permit the rats to adopt a normal crouched posture, but narrow enough to prevent turning around. After a stabilization period of about 20 minutes, the free tip of the bladder cannula was connected through a T-shaped tube to a pressure transducer (Statham P23XL) and to a peristaltic pump (Gilson minipuls 2) for continuous infusion of a warm (37° C.) saline solution into the urinary bladder, at a constant rate of 0.1 ml/minute. The intraluminal-pressure signal during infusion of saline into the bladder was continuously recorded on a polygraph (Rectigraph-8K San-ei with BM614/2 amplifier from Biomedica Mangoni) and, from the cystometrogram, two urodynamic parameters were evaluated: bladder volume capacity (BVC) and micturition pressure (MP). BVC (in ml) is defined as the volume of saline infused into the bladder necessary to induce detrusor contraction followed by micturition. MP (in mmHg) is defined as the maximal intravesical pressure caused by contraction during micturition. Basal BVC and MP values were evaluated as the mean of the values observed in the cystometrograms recorded in an initial period of 30-60 minutes. At this point in the assay, the infusion was interrupted and the test compounds were administered either intravenously by the jugular catheter or orally by a stomach tube. The bladder infusion restarted and changes in BVC and MP were evaluated from the mean values obtained in the cystometrograms observed during 1, 2, 3, 4, and 5 hours after treatment. The compounds were administered in a volume of 1 ml/kg and 2 ml/kg for intravenous and oral administration routes, respectively. Groups of control animals received the same amount of vehicle corresponding to a solution of 8% dimethylformamide and 8% Tween 80 in water (final concentrations) for intravenous, or a solution of 0.5% methocel in water for oral route.
Under the given test conditions, measurement of BVC is equivalent to measurement of interval time between micturitions.
All data were expressed as mean±standard error. The percent changes of BVC and MP relative to the basal values, as well as Δ values (difference in ml or in mmHg) of BVC and MP (BVC or MP at time “x” minus basal value), were also evaluated for each rat/time. In the figures, data were reported as percentage changes relative to basal values. […]

Chain of mGlu5 (P31424 21-1203): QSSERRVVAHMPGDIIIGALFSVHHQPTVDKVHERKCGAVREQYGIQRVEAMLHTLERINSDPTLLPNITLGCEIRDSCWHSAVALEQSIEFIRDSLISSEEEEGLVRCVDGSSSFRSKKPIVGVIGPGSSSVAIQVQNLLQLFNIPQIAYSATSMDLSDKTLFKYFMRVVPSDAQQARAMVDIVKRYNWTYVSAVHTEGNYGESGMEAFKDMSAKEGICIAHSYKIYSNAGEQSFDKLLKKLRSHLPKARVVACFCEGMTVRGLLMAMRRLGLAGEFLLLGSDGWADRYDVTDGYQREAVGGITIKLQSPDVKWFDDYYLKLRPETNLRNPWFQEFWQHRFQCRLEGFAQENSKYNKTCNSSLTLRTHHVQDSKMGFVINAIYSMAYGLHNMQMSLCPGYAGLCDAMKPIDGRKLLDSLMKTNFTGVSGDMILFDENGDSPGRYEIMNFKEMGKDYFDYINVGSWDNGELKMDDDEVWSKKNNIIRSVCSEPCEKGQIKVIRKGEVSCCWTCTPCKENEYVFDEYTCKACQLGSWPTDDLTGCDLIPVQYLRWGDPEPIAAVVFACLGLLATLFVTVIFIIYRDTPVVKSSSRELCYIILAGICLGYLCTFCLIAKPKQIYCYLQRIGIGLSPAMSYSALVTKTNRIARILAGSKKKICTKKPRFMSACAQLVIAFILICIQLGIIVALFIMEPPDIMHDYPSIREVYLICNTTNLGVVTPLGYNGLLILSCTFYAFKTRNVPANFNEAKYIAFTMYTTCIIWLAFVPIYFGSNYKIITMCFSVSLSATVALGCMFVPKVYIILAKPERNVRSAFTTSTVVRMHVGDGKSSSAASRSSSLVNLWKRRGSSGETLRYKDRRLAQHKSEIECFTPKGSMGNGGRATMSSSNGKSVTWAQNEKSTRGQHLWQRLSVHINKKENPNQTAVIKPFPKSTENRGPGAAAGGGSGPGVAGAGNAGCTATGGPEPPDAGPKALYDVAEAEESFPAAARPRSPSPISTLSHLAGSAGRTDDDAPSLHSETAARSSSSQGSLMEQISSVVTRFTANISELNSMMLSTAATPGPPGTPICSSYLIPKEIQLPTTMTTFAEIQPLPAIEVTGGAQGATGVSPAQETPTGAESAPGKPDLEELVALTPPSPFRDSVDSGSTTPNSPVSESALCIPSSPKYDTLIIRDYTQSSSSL

As a reminder, the Ki is the dissociation constant of the complex between target and ligand, obtained from inhibition or displacement. One may read the IC50 as the point on the concentration scale where inhibition reaches its midpoint. `NC1(C(=O)O)CCc2cc(C(=O)O)ccc21` (stereo not drawn) [AIDA]: the Ki (on mGlu5; in experiment [1] (rat forebrain); at mGlu1) was more than 10 µM throughout. Moreover, the “mGlu2 activity (in words)” value at mGlu2 (literature (Moroni et al. 1997)) was “Weak”. The results for the “BLADDER CONTRACTIONS quiescence time” value in [2] (1000 μg/kg i.v.), in [2] (3000 μg/kg i.v.) and in [2] (10000 μg/kg i.v.) were 1.50 ± 0.54 min, 2.33 ± 1.44 min and 2.35 ± 0.50 min, respectively. The “activity as inhibitors of isovolumic voiding contractions (in words)” value (“activity as inhibitors” below) in experiment [2] is “inactive”. Further, the “ED10min (extrapolated dose inducing 10 min of bladder quiescence)” value (“ED10min” below) in experiment [2] was more than 10 mg/kg. The IC50 on mGlu5a and at mGlu4a was more than 1000 µM each time.
As to `N[C@](CC1c2ccccc2Oc2ccccc21)(C(=O)O)[C@H]1C[C@@H]1C(=O)O` [LY 341495], in [1] (rat forebrain), the “displacement of specific binding of [3H]LY341495 to Group II receptors (in words)” value is listed as “displaced with high affinity”. In experiment [1] (rat forebrain), the Ki was determined as 0.004 µM. Further, the “BLADDER CONTRACTIONS quiescence time” value in experiment [2] (100 μg/kg i.v.) is 2.45 ± 1.39 min; in experiment [2] (300 μg/kg i.v.) it was 4.48 ± 1.31 min; in [2] (1000 μg/kg i.v.), 4.65 ± 2.11 min. In addition, the “activity as inhibitors” value in experiment [2] was “inactive”. Further, the “ED10min” value in experiment [2] is more than 1 mg/kg.
Regarding `Cc1cc(C(=O)O)ccc1[C@H](N)C(=O)O` [LY 367385], the Ki on mGlu5 was more than 10 µM; in [1] (rat forebrain), more than 1 µM; on mGlu1 it was 6 µM. In addition, the IC50 at mGlu1a was 8.8 µM; at mGlu5a it was more than 100 µM. Moreover, the “BLADDER CONTRACTIONS quiescence time” value in experiment [2] (3000 μg/kg i.v.) is given as 1.00 ± 0.29 min; in [2] (10000 μg/kg i.v.) it was 1.95 ± 0.30 min. In addition, the “activity as inhibitors” value in experiment [2] was “inactive”. Besides, the “ED10min” value in experiment [2] is more than 10 mg/kg. Further, at mGlu1, the “displacement of [3H]quisqualic acid from its binding sites (in words)” value is “significantly displaced”.
As for `Cc1cccc(C#Cc2ccccc2)n1` [MPEP, 2-methyl-6-(phenylethynyl)pyridine], the “inhibition of the specific binding of [3H]MPEP to mGlu5 receptor (in words)” value at mGlu5 is “most potent inhibitors”. In addition, the IC50 on mGlu6 was more than 100 µM; on mGlu1a it was more than 100 µM; on mGlu7 it was more than 100 µM; at mGlu8, more than 100 µM; on mGlu2 (literature, functional models), more than 100 µM; on mGlu4a it was more than 100 µM. In addition, the Ki is more than 1 µM in experiment [1] (rat forebrain) and more than 10 µM on mGlu1. The “bladder volume capacity (BVC)” value was “effective in antagonizing the reduction of the bladder volume capacity” in experiment [3] (FIG. 5); “significant increases in BVC” in the experiment on conscious rats (10 mg/kg i.v., vs basal values and vs control group, FIG. 1); “effective in increasing the bladder volume capacity” in the experiment on conscious rats (3 and 10 mg/kg i.v., FIG. 1); “significant and dose-dependent increases in the BVC” in the experiment with conscious rats (oral, 3-10 and 30 mg/kg, effect at 10 mg/kg or higher, FIG. 3). Moreover, the “micturition pressure (MP)” value in experiment [3] (FIG. 6) is on record as “no effect on the micturition pressure”; in the experiment on conscious rats (i.v., MPEP 3 and 10 mg/kg, SIB 1893 50 mg/kg, FIG. 2), “only mild effects on the micturition pressure”; in the experiment on conscious rats (oral, 10 and 30 mg/kg, vs control group, FIG. 4), “significantly reduced the MP”. For the same compound, the “BLADDER CONTRACTIONS quiescence time” value in experiment [2] (30 μg/kg i.v.) came to 3.90 ± 1.37 min; in experiment [2] (100 μg/kg i.v.), 7.09 ± 1.04 min; in [2] (300 μg/kg i.v.), 12.64 ± 1.72 min; in experiment [2] (1000 μg/kg i.v.), 22.46 ± 5.35 min. Further, the “activity as inhibitors” value in [2] is on record as “active”. Further, in experiment [2], the “ED10min” value was 0.15 mg/kg.
As to `Cc1nc(C#Cc2cccnc2)cs1` [MTEP, 3-(2-methylthiazol-4-yl)ethynylpyridine], on mGlu5, the “inhibition of the specific binding of [3H]MPEP to mGlu5 receptor (in words)” value was “most potent inhibitors”. In addition, the “BLADDER CONTRACTIONS quiescence time” value was found to be 5.52 ± 1.09 min in experiment [2] (30 μg/kg i.v.), 8.73 ± 2.11 min in experiment [2] (100 μg/kg i.v.), 13.90 ± 2.10 min in experiment [2] (300 μg/kg i.v.) and 20.96 ± 4.66 min in experiment [2] (1000 μg/kg i.v.). The “activity as inhibitors” value in experiment [2] is reported as “active”. Besides, the “ED10min” value in experiment [2] is 0.106 mg/kg.
For `CN1CC[C@]23c4c5ccc(O)c4O[C@H]2[C@@H](O)C=C[C@H]3[C@H]1C5` [Morphine], the “BLADDER CONTRACTIONS quiescence time” value is recorded as 2.76 ± 0.93 min in [2] (10 μg/kg i.v.), 6.89 ± 2.11 min in [2] (30 μg/kg i.v.), 13.83 ± 2.40 min in experiment [2] (100 μg/kg i.v.) and 18.17 ± 3.60 min in experiment [2] (300 μg/kg i.v.). Besides, in experiment [2], the “ED10min” value is 0.05 mg/kg.
The term Kd denotes the constant that tells how readily two partners part at equilibrium. As for `N[C@](CC1c2ccccc2Oc2ccccc21)(C(=O)O)[C@H]1C[C@@H]1C(=O)O` [[^3H]LY341495], the Kd in experiment [1] (rat forebrain membranes, saturable binding, read-out: Kd of radioligand binding to mGlu2+mGlu3 subtypes) is 0.0025 µM.
